One compound from patent US9980936B2, “BH4 antagonists and methods related thereto” (Emory University, priority 2014, dated 2018) can be followed below.

Format in all cases: cell-based
Assay [1] has as its system H460 cells. In words: co-IP of Bcl2 with Bax and Bim.
Method: To test whether BDA-366-induced Bcl2 conformational change increases interaction between Bcl2 and Bax in cells, co-IP experiments were performed following treatment of H460 cells with BDA-366.
Assay [2] deals with NSCLC cell lines H157, Calu-1, H358, H460, H1975 and SCLC cell lines DMS53, DMS153, H146, H69. In words: cell growth (SRB) and apoptosis (Annexin V/PI), lines with higher Bcl2. The note with it: relatively higher levels of Bcl2. How it is done:
The effect of BDA-2 on cell growth and apoptosis was measured by SRB assay and Annexin V/PI binding, respectively, in both small cell lung cancer (SCLC) and non-small cell lung cancer (NSCLC) cell lines that express various levels of endogenous Bcl2.

In assay [3] the test system is H460 cells. In words: IP3R/Bcl2 interaction and Ca2+ release. The conditions noted are these: increasing concentrations, 24 h. How it is done: To further determine whether Bax is important for BDA-2 induction of apoptosis, the apoptotic effect of BDA-366 was tested on wild type (WT) and Bax knockout (Bax−/−) MEF cells. […] To test whether BDA-2/BH4 binding affects the IP3R/Bcl2 interaction and Ca2+ release, H460 cells were treated with increasing concentrations of BDA-366 for 24 h.

Assay [4] deals with H460 cells. The experiment in a line: autophagy (LC3-II, GFP-LC3). How it is done:
Bcl2 directly interacts with Beclin-1 and suppresses Beclin-1-dependent autophagy. Inhibition of Bcl2 by ABT-737 not only induces apoptosis but also autophagy. […] To test whether disruption of Bcl2 BH4 by BDA-2 stimulates autophagy, H460 cells were treated with BDA-366 (1 μM) for 24 h. […] To further quantify the level of autophagy, a GFP-LC3 construct was used to indicate autophagosomes.

Assay [5] relates to H460, H157, DMS53, DMS153 and H146 cells expressing Bcl2 shRNA. The experiment in a line: apoptotic cell death (Annexin-V/PI, FACS) after Bcl2 shRNA knock-down. The conditions noted are these: 1 μM, 72 h.
Method: To determine whether Bcl-2 is the relevant target at the cellular level and whether cell killing is truly dependent on this particular mechanism, Bcl2 was specifically knocked down using three different Bcl2 shRNAs that target different regions in Bcl2 gene in five lung cancer cell lines, including two NSCLC cell lines (H460 and H157) and three SCLC cell lines (DMS53, DMS153 and H146). […] Cells expressing Bcl2 shRNA1, shRNA2, shRNA3 or control shRNA were treated with BDA-2 (1 μM) for 72 h. The level of apoptotic cell death was determined by analysis of Annexin-V/PI binding by FACS.

As to `CCN(CC)CC(O)CNc1ccc(NCC2CO2)c2c1C(=O)c1ccccc1C2=O` (centres unmarked) [BDA-366, 1-((3-(diethylamino)-2-hydroxypropyl)amino)-4-((oxiran-2-ylmethyl)amino)anthracene-9,10-dione], in assay [1], the Bcl2/Bax interaction result was “enhanced Bcl2/Bax interaction” and the Bcl2/Bim binding entry is on record as “decreased Bcl2/Bim binding”. In assay [2], the sensitivity of cells result is listed as “more sensitive”. Also, in assay [3], the Bcl2/IP3R binding result is given as “reduced Bcl2/IP3R binding” and the “Ca2+ release” value was “increased Ca2+ release”. The “levels of LC3-II” value in assay [4] (1 μM, 24 h) is reported as “Increased levels of LC3-II”. In addition, in assay [4] (compared to DMSO control), the “percentage of GFP-LC3vac cells” value is on record as “significantly increases”. Besides, the “sensitivity (apoptotic cell death) after depletion of endogenous Bcl2” value in assay [5] was “significantly reduced sensitivity”.
